{"source": "patent US9340590B2", "about": "(priority 2011, dated 2016)", "assay_in_all_cases": "cell-based", "key": {"hNav1.3": {"target": "hNav1.3 (Homo sapiens, UniProt Q9NY46)", "conditions": "IonWorks Quattro, read-out: IWQ Use Nav1.3"}, "hNav1.7": {"target": "hNav1.7 (Homo sapiens, UniProt Q15858)", "sequence (Q15858 whole entry, looked up)": "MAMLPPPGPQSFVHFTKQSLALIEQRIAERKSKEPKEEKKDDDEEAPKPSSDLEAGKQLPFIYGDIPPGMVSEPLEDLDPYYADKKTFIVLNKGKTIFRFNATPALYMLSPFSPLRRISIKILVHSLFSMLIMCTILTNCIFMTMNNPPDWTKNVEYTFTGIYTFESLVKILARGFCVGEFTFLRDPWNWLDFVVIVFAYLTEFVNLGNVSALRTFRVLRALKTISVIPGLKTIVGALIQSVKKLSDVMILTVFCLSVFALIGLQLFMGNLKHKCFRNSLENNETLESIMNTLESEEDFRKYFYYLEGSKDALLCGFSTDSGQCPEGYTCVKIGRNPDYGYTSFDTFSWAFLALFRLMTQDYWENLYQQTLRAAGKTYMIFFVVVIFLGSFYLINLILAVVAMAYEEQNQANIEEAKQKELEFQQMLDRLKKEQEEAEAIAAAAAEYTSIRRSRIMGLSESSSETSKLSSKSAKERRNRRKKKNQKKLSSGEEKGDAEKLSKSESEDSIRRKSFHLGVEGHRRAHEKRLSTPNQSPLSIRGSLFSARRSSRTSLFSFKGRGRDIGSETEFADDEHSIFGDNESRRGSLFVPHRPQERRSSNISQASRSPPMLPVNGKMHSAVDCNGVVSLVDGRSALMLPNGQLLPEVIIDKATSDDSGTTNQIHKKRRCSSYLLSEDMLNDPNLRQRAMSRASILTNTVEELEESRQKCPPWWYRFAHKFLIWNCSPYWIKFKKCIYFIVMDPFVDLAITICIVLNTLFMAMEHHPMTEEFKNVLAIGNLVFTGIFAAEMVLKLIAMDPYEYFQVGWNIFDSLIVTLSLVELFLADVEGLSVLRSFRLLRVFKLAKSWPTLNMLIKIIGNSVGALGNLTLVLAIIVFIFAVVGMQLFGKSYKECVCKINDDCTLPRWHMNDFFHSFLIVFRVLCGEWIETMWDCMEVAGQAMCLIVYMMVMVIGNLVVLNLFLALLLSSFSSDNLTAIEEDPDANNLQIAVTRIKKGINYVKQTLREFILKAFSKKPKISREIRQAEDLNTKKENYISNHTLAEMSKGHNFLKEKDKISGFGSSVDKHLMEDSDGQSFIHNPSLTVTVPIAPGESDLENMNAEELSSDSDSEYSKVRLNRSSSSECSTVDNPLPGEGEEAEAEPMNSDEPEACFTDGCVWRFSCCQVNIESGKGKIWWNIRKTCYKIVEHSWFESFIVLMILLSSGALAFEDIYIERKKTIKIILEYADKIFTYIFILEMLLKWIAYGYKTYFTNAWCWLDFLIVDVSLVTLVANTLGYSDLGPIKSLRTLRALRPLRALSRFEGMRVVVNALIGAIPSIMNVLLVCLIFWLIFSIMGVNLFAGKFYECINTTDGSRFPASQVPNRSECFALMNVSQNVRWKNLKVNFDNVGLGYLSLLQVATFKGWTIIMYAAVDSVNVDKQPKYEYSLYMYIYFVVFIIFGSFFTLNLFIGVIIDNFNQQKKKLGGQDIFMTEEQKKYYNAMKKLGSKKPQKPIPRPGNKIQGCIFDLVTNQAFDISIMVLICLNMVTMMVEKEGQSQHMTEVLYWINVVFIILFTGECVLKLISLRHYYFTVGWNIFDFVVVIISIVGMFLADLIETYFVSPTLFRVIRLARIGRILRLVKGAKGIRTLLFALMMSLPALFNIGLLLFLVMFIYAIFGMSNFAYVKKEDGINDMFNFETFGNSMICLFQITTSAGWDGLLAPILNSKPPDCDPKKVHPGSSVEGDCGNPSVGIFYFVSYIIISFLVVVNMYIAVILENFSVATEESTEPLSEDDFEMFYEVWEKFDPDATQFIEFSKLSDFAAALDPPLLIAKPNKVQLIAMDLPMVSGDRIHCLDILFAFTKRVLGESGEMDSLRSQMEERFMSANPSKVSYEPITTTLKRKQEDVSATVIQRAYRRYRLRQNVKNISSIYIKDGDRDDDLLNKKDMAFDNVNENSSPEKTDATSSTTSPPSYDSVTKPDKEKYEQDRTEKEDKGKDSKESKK", "assay_type": "cell-based"}, "hNav1.5": {"target": "hNav1.5 (Homo sapiens, UniProt Q14524)", "sequence (Q14524 whole entry, looked up)": "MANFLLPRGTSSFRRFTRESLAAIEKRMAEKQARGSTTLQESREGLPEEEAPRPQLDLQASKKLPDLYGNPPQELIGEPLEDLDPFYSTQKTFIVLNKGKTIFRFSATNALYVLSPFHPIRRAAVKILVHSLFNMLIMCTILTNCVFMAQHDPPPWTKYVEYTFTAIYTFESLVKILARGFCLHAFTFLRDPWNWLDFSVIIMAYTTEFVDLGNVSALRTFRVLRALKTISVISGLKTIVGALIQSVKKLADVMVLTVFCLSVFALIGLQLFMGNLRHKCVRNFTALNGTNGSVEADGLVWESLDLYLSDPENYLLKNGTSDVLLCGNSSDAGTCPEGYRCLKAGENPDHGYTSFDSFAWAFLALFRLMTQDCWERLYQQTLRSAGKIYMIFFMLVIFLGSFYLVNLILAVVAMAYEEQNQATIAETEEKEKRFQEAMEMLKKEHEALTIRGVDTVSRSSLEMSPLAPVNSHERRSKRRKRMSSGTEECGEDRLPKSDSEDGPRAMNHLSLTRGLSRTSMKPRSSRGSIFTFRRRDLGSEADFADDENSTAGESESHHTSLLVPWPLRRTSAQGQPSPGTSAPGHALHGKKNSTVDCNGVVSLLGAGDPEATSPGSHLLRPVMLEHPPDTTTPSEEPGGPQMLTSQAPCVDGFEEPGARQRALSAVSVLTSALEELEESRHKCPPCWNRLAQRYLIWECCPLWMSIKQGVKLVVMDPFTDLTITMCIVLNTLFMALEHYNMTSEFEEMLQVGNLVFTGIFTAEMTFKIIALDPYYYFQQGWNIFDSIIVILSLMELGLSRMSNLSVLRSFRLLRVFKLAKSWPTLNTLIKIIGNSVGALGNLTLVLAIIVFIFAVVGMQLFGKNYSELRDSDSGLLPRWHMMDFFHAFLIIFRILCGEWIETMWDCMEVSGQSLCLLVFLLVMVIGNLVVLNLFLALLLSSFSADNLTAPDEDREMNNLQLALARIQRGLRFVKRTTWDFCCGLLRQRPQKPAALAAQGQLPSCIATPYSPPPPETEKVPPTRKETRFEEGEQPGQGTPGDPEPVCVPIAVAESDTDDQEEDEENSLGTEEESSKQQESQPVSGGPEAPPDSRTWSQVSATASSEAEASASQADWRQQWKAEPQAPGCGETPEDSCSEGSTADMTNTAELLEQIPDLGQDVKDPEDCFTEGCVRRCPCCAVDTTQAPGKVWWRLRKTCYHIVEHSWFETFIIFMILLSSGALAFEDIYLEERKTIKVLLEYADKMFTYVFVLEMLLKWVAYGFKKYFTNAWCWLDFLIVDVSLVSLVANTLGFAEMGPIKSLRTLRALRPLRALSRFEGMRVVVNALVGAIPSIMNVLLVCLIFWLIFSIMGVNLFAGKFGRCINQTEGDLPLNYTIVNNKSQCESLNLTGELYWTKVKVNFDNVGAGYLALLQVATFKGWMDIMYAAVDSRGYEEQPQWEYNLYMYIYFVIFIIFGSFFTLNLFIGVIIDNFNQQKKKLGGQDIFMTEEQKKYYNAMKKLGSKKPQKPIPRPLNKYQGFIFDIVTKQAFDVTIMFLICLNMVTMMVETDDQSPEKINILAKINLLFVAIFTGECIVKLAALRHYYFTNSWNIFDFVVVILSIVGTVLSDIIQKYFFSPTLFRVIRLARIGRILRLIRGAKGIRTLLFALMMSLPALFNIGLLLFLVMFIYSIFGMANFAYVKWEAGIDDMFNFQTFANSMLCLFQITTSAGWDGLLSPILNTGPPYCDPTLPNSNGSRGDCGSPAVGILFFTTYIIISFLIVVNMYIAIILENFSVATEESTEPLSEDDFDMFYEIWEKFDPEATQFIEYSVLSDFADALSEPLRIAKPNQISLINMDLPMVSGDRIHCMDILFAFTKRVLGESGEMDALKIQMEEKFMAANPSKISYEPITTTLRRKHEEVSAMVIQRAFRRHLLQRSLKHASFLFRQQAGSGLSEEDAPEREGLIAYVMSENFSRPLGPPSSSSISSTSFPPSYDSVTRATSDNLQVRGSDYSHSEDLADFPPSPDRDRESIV"}, "[1]": {"conditions": "IonWorks Quattro, Use, read-out: IWQ Use Nav1.7"}, "[2]": {"conditions": "IonWorks Quattro, Use, read-out: IWQ Use Nav1.5"}}, "note": "Like-named read-outs stand apart in the source and are kept apart here. Positions of bridges follow the written chain, without caps; N, C: chain ends. Residues, ends and D or L forms follow the SMILES beside them.", "data": [{"smiles": "CC[C@H](C)[C@@H]1NC(=O)[C@@H]2CSSC[C@@H]3NC(=O)[C@H](C(C)C)NC(=O)[C@H](CC(C)C)NC(=O)[C@H](CC(N)=O)NC(=O)[C@@H]4CCCN4C(=O)[C@H](Cc4c[nH]c5ccccc45)NC(=O)[C@H](CSSC[C@H](NC(=O)[C@@H](N)CC(=O)O)C(=O)N[C@@H](CC(C)C)C(=O)NCC(=O)N[C@@H](Cc4ccccc4)C(=O)N[C@@H](CCSC)C(=O)N[C@@H](CCCNC(=N)N)C(=O)N[C@@H](CCCCN)C(=O)N2)NC(=O)[C@H](CSSC[C@@H](C(=O)N[C@@H](CCCCN)C(=O)N[C@@H](Cc2ccc(O)cc2)C(=O)N[C@H](C(=O)N[C@@H](Cc2ccccc2)C(N)=O)C(C)C)NC(=O)[C@H](Cc2c[nH]c4ccccc24)NC(=O)[C@H](CCCCN)NC(=O)[C@H](Cc2c[nH]cn2)NC(=O)[C@H]([C@@H](C)O)NC(=O)[C@H](CCCNC(=N)N)NC(=O)[C@H](CO)NC3=O)NC(=O)[C@H](CCCCN)NC(=O)[C@H](CC(=O)O)NC(=O)[C@H](CC(N)=O)NC(=O)[C@H](CC(=O)O)NC(=O)[C@@H]2CCCN2C1=O", "note": "[compound 174] (H-DCLGFMRKCIPDNDKCCWPNLVCSRTHKWCKYVF-NH2; disulfide 2-17, 9-23, 16-30)", "values": [{"measurement": "IC50", "setting": "hNav1.3; Use", "value": 80, "unit": "nM"}, {"measurement": "IC50", "setting": "hNav1.7; [1]", "value": 190, "unit": "nM"}, {"measurement": "IC50", "setting": "hNav1.5; [2]", "value": 14.7, "unit": "µM"}]}, {"smiles": "CC[C@H](C)[C@@H]1NC(=O)[C@@H]2CSSC[C@@H]3NC(=O)[C@H](C(C)C)NC(=O)[C@H](CC(C)C)NC(=O)[C@H](Cc4c[nH]c5ccccc45)NC(=O)[C@@H]4CCCN4C(=O)[C@H](CCCNC(=N)N)NC(=O)[C@H](CSSC[C@H](NC(=O)[C@@H](N)CC(=O)O)C(=O)N[C@@H](CC(C)C)C(=O)NCC(=O)N[C@@H](Cc4ccccc4)C(=O)N[C@@H](CCSC)C(=O)N[C@@H](CCCNC(=N)N)C(=O)N[C@@H](CCCCN)C(=O)N2)NC(=O)[C@H](CSSC[C@@H](C(=O)N[C@@H](CCCCN)C(=O)N[C@@H](Cc2ccc(O)cc2)C(=O)N[C@H](C(=O)N[C@@H](Cc2ccccc2)C(N)=O)C(C)C)NC(=O)[C@H](Cc2c[nH]c4ccccc24)NC(=O)[C@H](CCCCN)NC(=O)[C@H](Cc2cnc[nH]2)NC(=O)[C@H]([C@@H](C)O)NC(=O)[C@H](CCCNC(=N)N)NC(=O)[C@H](CO)NC3=O)NC(=O)[C@H](CCCCN)NC(=O)[C@H](CC(=O)O)NC(=O)[C@H](CC(N)=O)NC(=O)[C@H](CC(=O)O)NC(=O)[C@@H]2CCCN2C1=O", "note": "[compound 175] (H-DCLGFMRKCIPDNDKCCRPWLVCSRTHKWCKYVF-NH2; disulfide 2-17, 9-23, 16-30)", "values": [{"measurement": "IC50", "setting": "hNav1.3; Use", "value": 20, "unit": "nM"}, {"measurement": "IC50", "setting": "hNav1.7; [1]", "value": 50, "unit": "nM"}, {"measurement": "IC50", "setting": "hNav1.5; [2]", "value": 7.39, "unit": "µM"}]}, {"smiles": "CC[C@H](C)[C@@H]1NC(=O)[C@@H]2CSSC[C@@H]3NC(=O)[C@H](C(C)C)NC(=O)[C@H](Cc4c[nH]c5ccccc45)NC(=O)[C@H](CC(N)=O)NC(=O)[C@@H]4CCCN4C(=O)[C@H](CCCNC(=N)N)NC(=O)[C@H](CSSC[C@H](NC(=O)[C@@H](N)CC(=O)O)C(=O)N[C@@H](CC(C)C)C(=O)NCC(=O)N[C@@H](Cc4ccccc4)C(=O)N[C@@H](CCSC)C(=O)N[C@@H](CCCNC(=N)N)C(=O)N[C@@H](CCCCN)C(=O)N2)NC(=O)[C@H](CSSC[C@@H](C(=O)N[C@@H](CCCCN)C(=O)N[C@@H](Cc2ccc(O)cc2)C(=O)N[C@H](C(=O)N[C@@H](Cc2ccccc2)C(N)=O)C(C)C)NC(=O)[C@H](Cc2c[nH]c4ccccc24)NC(=O)[C@H](CCCCN)NC(=O)[C@H](Cc2cnc[nH]2)NC(=O)[C@H]([C@@H](C)O)NC(=O)[C@H](CCCNC(=N)N)NC(=O)[C@H](CO)NC3=O)NC(=O)[C@H](CCCCN)NC(=O)[C@H](CC(=O)O)NC(=O)[C@H](CC(N)=O)NC(=O)[C@H](CC(=O)O)NC(=O)[C@@H]2CCCN2C1=O", "note": "[compound 176] (H-DCLGFMRKCIPDNDKCCRPNWVCSRTHKWCKYVF-NH2; disulfide 2-17, 9-23, 16-30)", "values": [{"measurement": "IC50", "setting": "hNav1.3; Use", "value": 50, "unit": "nM"}, {"measurement": "IC50", "setting": "hNav1.7", "value": 100, "unit": "nM"}, {"measurement": "IC50", "setting": "hNav1.5; IWQ Use Nav1.5 (μM)", "value": 13.8, "unit": "µM"}]}, {"smiles": "CC[C@H](C)[C@@H]1NC(=O)[C@@H]2CSSC[C@@H]3NC(=O)[C@H](Cc4c[nH]c5ccccc45)NC(=O)[C@H](CC(C)C)NC(=O)[C@H](CC(N)=O)NC(=O)[C@@H]4CCCN4C(=O)[C@H](CCCNC(=N)N)NC(=O)[C@H](CSSC[C@H](NC(=O)[C@@H](N)CC(=O)O)C(=O)N[C@@H](CC(C)C)C(=O)NCC(=O)N[C@@H](Cc4ccccc4)C(=O)N[C@@H](CCSC)C(=O)N[C@@H](CCCNC(=N)N)C(=O)N[C@@H](CCCCN)C(=O)N2)NC(=O)[C@H](CSSC[C@@H](C(=O)N[C@@H](CCCCN)C(=O)N[C@@H](Cc2ccc(O)cc2)C(=O)N[C@H](C(=O)N[C@@H](Cc2ccccc2)C(N)=O)C(C)C)NC(=O)[C@H](Cc2c[nH]c4ccccc24)NC(=O)[C@H](CCCCN)NC(=O)[C@H](Cc2cnc[nH]2)NC(=O)[C@H]([C@@H](C)O)NC(=O)[C@H](CCCNC(=N)N)NC(=O)[C@H](CO)NC3=O)NC(=O)[C@H](CCCCN)NC(=O)[C@H](CC(=O)O)NC(=O)[C@H](CC(N)=O)NC(=O)[C@H](CC(=O)O)NC(=O)[C@@H]2CCCN2C1=O", "note": "[compound 177] (H-DCLGFMRKCIPDNDKCCRPNLWCSRTHKWCKYVF-NH2; disulfide 2-17, 9-23, 16-30)", "values": [{"measurement": "IC50", "setting": "hNav1.3; Use", "value": 60, "unit": "nM"}, {"measurement": "IC50", "setting": "hNav1.7", "value": 30, "unit": "nM"}, {"measurement": "IC50", "setting": "hNav1.5; IWQ Use Nav1.5 (μM)", "value": 8.02, "unit": "µM"}]}, {"smiles": "CC[C@H](C)[C@@H]1NC(=O)[C@@H]2CSSC[C@@H]3NC(=O)[C@H](C(C)C)NC(=O)[C@H](CC(C)C)NC(=O)[C@H](CC(N)=O)NC(=O)[C@@H]4CCCN4C(=O)[C@H](CCCNC(=N)N)NC(=O)[C@H](CSSC[C@H](NC(=O)[C@@H](N)CC(=O)O)C(=O)N[C@@H](CC(C)C)C(=O)NCC(=O)N[C@@H](Cc4ccccc4)C(=O)N[C@@H](CCSC)C(=O)N[C@@H](CCCNC(=N)N)C(=O)N[C@@H](CCCCN)C(=O)N2)NC(=O)[C@H](CSSC[C@@H](C(=O)N[C@@H](CCCCN)C(=O)N[C@@H](Cc2ccc(O)cc2)C(=O)N[C@H](C(=O)N[C@@H](Cc2ccccc2)C(N)=O)C(C)C)NC(=O)[C@H](Cc2c[nH]c4ccccc24)NC(=O)[C@H](CCCCN)NC(=O)[C@H](Cc2cnc[nH]2)NC(=O)[C@H](Cc2c[nH]c4ccccc24)NC(=O)[C@H](CCCNC(=N)N)NC(=O)[C@H](CO)NC3=O)NC(=O)[C@H](CCCCN)NC(=O)[C@H](CC(=O)O)NC(=O)[C@H](CC(N)=O)NC(=O)[C@H](CC(=O)O)NC(=O)[C@@H]2CCCN2C1=O", "note": "[compound 178] (H-DCLGFMRKCIPDNDKCCRPNLVCSRWHKWCKYVF-NH2; disulfide 2-17, 9-23, 16-30)", "values": [{"measurement": "IC50", "setting": "hNav1.3; Table 22, use, […]", "value": 20, "unit": "nM"}, {"measurement": "IC50", "setting": "hNav1.7; Table 22, IonWorks Quattro, use, […], read-out: IWQ Use Nav1.7", "value": 30, "unit": "nM"}, {"measurement": "IC50", "setting": "hNav1.5; Table 22, IonWorks Quattro, use, […], read-out: IWQ Use Nav1.5", "value": 5.84, "unit": "µM"}]}, {"smiles": "CC[C@H](C)[C@@H]1NC(=O)[C@@H]2CSSC[C@@H]3NC(=O)[C@H](C(C)C)NC(=O)[C@H](CC(C)C)NC(=O)[C@H](CC(N)=O)NC(=O)[C@@H]4CCCN4C(=O)[C@H](CCCNC(=N)N)NC(=O)[C@H](CSSC[C@H](NC(=O)[C@@H](N)CC(=O)O)C(=O)N[C@@H](CC(C)C)C(=O)NCC(=O)N[C@@H](Cc4ccccc4)C(=O)N[C@@H](CCSC)C(=O)N[C@@H](CCCNC(=N)N)C(=O)N[C@@H](CCCCN)C(=O)N2)NC(=O)[C@H](CSSC[C@@H](C(=O)N[C@@H](Cc2c[nH]c4ccccc24)C(=O)N[C@@H](Cc2ccc(O)cc2)C(=O)N[C@H](C(=O)N[C@@H](Cc2ccccc2)C(N)=O)C(C)C)NC(=O)[C@H](Cc2c[nH]c4ccccc24)NC(=O)[C@H](CCCCN)NC(=O)[C@H](Cc2c[nH]cn2)NC(=O)[C@H]([C@@H](C)O)NC(=O)[C@H](CCCNC(=N)N)NC(=O)[C@H](CO)NC3=O)NC(=O)[C@H](CCCCN)NC(=O)[C@H](CC(=O)O)NC(=O)[C@H](CC(N)=O)NC(=O)[C@H](CC(=O)O)NC(=O)[C@@H]2CCCN2C1=O", "note": "[compound 179] (H-DCLGFMRKCIPDNDKCCRPNLVCSRTHKWCWYVF-NH2; disulfide 2-17, 9-23, 16-30)", "values": [{"measurement": "IC50", "setting": "hNav1.3; Table 25, use, […]", "value": 10200, "unit": "nM"}, {"measurement": "IC50", "setting": "hNav1.7; Table 25, IonWorks Quattro, use, […], read-out: IWQ Use Nav1.7", "value": 23600, "unit": "nM"}, {"measurement": "IC50", "setting": "hNav1.5; Table 25, IonWorks Quattro, use, […], read-out: IWQ Use Nav1.5", "value": 10.8, "unit": "µM"}]}, {"smiles": "CC[C@H](C)[C@@H]1NC(=O)[C@@H]2CSSC[C@@H]3NC(=O)[C@H](C(C)C)NC(=O)[C@H](CC(C)C)NC(=O)[C@H](CC(N)=O)NC(=O)[C@@H]4CCCN4C(=O)[C@H](CCCNC(=N)N)NC(=O)[C@H](CSSC[C@H](NC(=O)[C@@H](N)CC(=O)O)C(=O)N[C@@H](CC(C)C)C(=O)NCC(=O)N[C@@H](Cc4ccccc4)C(=O)N[C@@H](CCSC)C(=O)N[C@@H](CCCNC(=N)N)C(=O)N[C@@H](CCCCN)C(=O)N2)NC(=O)[C@H](CSSC[C@@H](C(=O)N[C@@H](CCCCN)C(=O)N[C@@H](Cc2ccc(O)cc2)C(=O)N[C@@H](Cc2c[nH]c4ccccc24)C(=O)N[C@@H](Cc2ccccc2)C(N)=O)NC(=O)[C@H](Cc2c[nH]c4ccccc24)NC(=O)[C@H](CCCCN)NC(=O)[C@H](Cc2c[nH]cn2)NC(=O)[C@H]([C@@H](C)O)NC(=O)[C@H](CCCNC(=N)N)NC(=O)[C@H](CO)NC3=O)NC(=O)[C@H](CCCCN)NC(=O)[C@H](CC(=O)O)NC(=O)[C@H](CC(N)=O)NC(=O)[C@H](CC(=O)O)NC(=O)[C@@H]2CCCN2C1=O", "note": "[compound 180] (H-DCLGFMRKCIPDNDKCCRPNLVCSRTHKWCKYWF-NH2; disulfide 2-17, 9-23, 16-30)", "values": [{"measurement": "IC50", "setting": "hNav1.3; Table 26, use, […]", "value": 9, "unit": "nM"}, {"measurement": "IC50", "setting": "hNav1.7; Table 26, IonWorks Quattro, use, […], read-out: IWQ Use Nav1.7", "value": 50, "unit": "nM"}, {"measurement": "IC50", "setting": "hNav1.5; Table 26, IonWorks Quattro, use, […], read-out: IWQ Use Nav1.5", "value": 9.06, "unit": "µM"}]}]}
